The values that follow come from ChEMBL document CHEMBL1127392, “5-Phenyl-3-ureidobenzazepin-2-ones as cholecystokinin-B receptor antagonists” (J Med Chem, 1994).

As usually defined, the IC50 is the concentration that gives 50% inhibition. Read a low IC50 as inhibition by little substance.

The target of this assay is T1, Cholecystokinin receptor type A (Cavia porcellus, UniProt Q63931).
T1 sequence (Q63931 whole entry): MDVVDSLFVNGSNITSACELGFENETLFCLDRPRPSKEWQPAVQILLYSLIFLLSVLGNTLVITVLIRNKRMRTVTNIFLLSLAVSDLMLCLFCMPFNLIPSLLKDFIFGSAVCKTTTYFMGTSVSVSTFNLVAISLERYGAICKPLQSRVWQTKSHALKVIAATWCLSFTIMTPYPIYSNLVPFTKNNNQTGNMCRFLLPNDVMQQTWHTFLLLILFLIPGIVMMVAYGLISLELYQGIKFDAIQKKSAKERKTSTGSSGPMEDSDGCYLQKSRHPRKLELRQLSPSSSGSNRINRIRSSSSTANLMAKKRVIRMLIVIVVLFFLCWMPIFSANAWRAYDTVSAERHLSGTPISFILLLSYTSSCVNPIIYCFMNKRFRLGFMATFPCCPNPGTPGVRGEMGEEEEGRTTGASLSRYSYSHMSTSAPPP
The assay can be described thus: In vitro binding affinity for the cholecystokinin type A receptor in guinea pig pancreas assayed using [125I]BH-CCK-8 as radioligand.
Regarding `CC(C)(C)NC(=O)CN1C(=O)[C@H](NC(=O)Nc2cccc(Cl)c2)C[C@H](c2ccccc2)c2cc(Cl)ccc21`, the IC50 is 0.287 µM.

For the molecule `Cc1cccc(NC(=O)N[C@@H]2C[C@H](c3ccccc3)c3ccccc3N(CC(=O)NC(C)(C)C)C2=O)c1`, the IC50 came to 0.288 µM.

On to `Cc1ccc2c(c1)N(CC(=O)NC(C)(C)C)C(=O)[C@@H](NC(=O)Nc1cccc(Cl)c1)C[C@H]2c1ccccc1`, for which the IC50 was found to be 0.363 µM.

For `Cc1cccc(NC(=O)N[C@@H]2N=C(c3ccccc3)c3ccccc3N(C)C2=O)c1` [L-365260], the IC50 came to 0.086 µM.

Take `Cc1ccc2c(c1)N(CC(=O)NC(C)(C)C)C(=O)[C@H](NC(=O)Nc1cccc(Cl)c1)C[C@@H]2Cc1ccccc1`: the concentration for half-maximal inhibition (IC50) was greater than 10 µM.

As for `COc1cccc(NC(=O)N[C@@H]2C[C@H](c3ccccc3)c3ccccc3N(CC(=O)NC(C)(C)C)C2=O)c1`, the concentration for half-maximal inhibition (IC50) is 0.166 µM.

In turn, `CC(C)(C)NC(=O)CN1C(=O)[C@H](NC(=O)Nc2cccc(Cl)c2)C[C@H](c2ccccc2)c2ccc(Cl)cc21` had an IC50 of 0.32 µM.

In turn, `CC(C)(NC(=O)CN1C(=O)[C@H](NC(=O)Nc2cccc(Cl)c2)C[C@H](c2ccccc2)c2ccccc21)c1ccccc1` showed an IC50 of 0.46 µM.

`Cc1ccccc1NC(=O)N[C@@H]1C[C@H](c2ccccc2)c2ccccc2N(CC(=O)NC(C)(C)C)C1=O` displayed an IC50 of 1.47 µM.

Take `CC(C)(C)NC(=O)CN1C(=O)[C@H](NC(=O)Nc2ccc(Cl)cc2)C[C@H](c2ccccc2)c2ccccc21`: the half-maximal inhibitory concentration (IC50) came to 0.399 µM.

On to `CCc1ccc2c(c1)N(CC(=O)NC(C)(C)C)C(=O)[C@H](NC(=O)Nc1cccc(Cl)c1)C[C@@H]2c1ccccc1`, for which the half-maximal inhibitory concentration (IC50) came to 0.071 µM.

`CC(C)(C)NC(=O)CN1C(=O)[C@H](NC(=O)Nc2cccc(Cl)c2)C[C@H](C2CCCCC2)c2ccccc21` displayed a half-maximal inhibitory concentration (IC50) of 0.171 µM.

The molecule `CC(C)(C)NC(=O)CN1C(=O)[C@H](NC(=O)Nc2cccc(Cl)c2)C[C@H](c2ccccc2)c2ccccc21` displayed an IC50 of 0.144 µM. The IC50 values of the last two molecules are within 1.5-fold of each other.

For `Cc1ccc2c(c1)N(CC(=O)OC(C)(C)C)C(=O)[C@H](NC(=O)Nc1cccc(Cl)c1)C[C@@H]2c1ccccc1`, the IC50 turned out to be 0.034 µM.

`Cc1ccc2c(c1)N(CC(=O)NC(C)(C)C)C(=O)[C@H](NC(=O)Nc1cccc(Cl)c1)C[C@@H]2C1CCCCC1`: the IC50 was found to be 0.56 µM.

In turn, `CC1(NC(=O)CN2C(=O)[C@H](NC(=O)Nc3cccc(Cl)c3)C[C@H](c3ccccc3)c3ccccc32)CCCCC1` registered an IC50 of 0.467 µM.

For the molecule `Cc1ccc([C@H]2C[C@@H](NC(=O)Nc3cccc(Cl)c3)C(=O)N(CC(=O)NC(C)(C)C)c3cc(C)ccc32)cc1`, the 50% inhibitory concentration (IC50) is 0.417 µM.

Take `Cc1ccc2c(c1)N(CC(=O)NC(C)(C)C)C(=O)[C@H](NC(=O)Nc1cccc(Cl)c1)C[C@@H]2C(C)C`: the concentration for half-maximal inhibition (IC50) is 0.072 µM.

In the case of `CCC(C)(C)NC(=O)CN1C(=O)[C@H](NC(=O)Nc2cccc(Cl)c2)C[C@H](c2ccccc2)c2ccccc21`, the IC50 was found to be 0.144 µM.

As to `Cc1ccc2c(c1)N(CC(=O)NC(C)(C)C)C(=O)[C@H](NC(=O)Nc1cccc(Cl)c1)C[C@@H]2c1ccccc1` (stereo in doubt; 43a), the IC50 is 0.13 µM.

Turning to `Cc1ccc2c(c1)N(CC(=O)NC(C)(C)C)C(=O)[C@H](NC(=O)Nc1cccc(Cl)c1)C[C@@H]2c1ccccc1` (stereo in doubt; 4), the IC50 stood at 0.176 µM.

The molecule `CN(C(=O)CN1C(=O)[C@H](NC(=O)Nc2cccc(Cl)c2)C[C@H](c2ccccc2)c2ccccc21)C(C)(C)C` showed an IC50 of 0.0042 µM. Against the preceding molecule, the IC50 is about 42-fold lower.

`CC(C)(C)NC(=O)CN1C(=O)[C@@H](NC(=O)Nc2cccc(Cl)c2)C[C@H](C2CCCCC2)c2ccccc21` came in with an IC50 greater than 10 µM.

For the molecule `Cc1cccc(NC(=O)N[C@@H]2C[C@H](c3ccccc3)c3ccccc3N(CC(=O)OC(C)(C)C)C2=O)c1`, the IC50 was determined as 0.05 µM.

Molecule `Cc1ccc(NC(=O)N[C@@H]2C[C@H](c3ccccc3)c3ccccc3N(CC(=O)NC(C)(C)C)C2=O)cc1` returned an IC50 of 1.14 µM.

As for `CC(C)(C)NC(=O)CN1C(=O)[C@H](NC(=O)Nc2cccc(Cl)c2)C[C@H](c2cccc(Cl)c2)c2ccccc21`, the concentration for half-maximal inhibition (IC50) is 0.069 µM. Against the preceding molecule, the IC50 is about 17-fold lower.

The molecule `Cc1cccc2c1N(CC(=O)NC(C)(C)C)C(=O)[C@H](NC(=O)Nc1cccc(Cl)c1)C[C@@H]2c1ccccc1` displayed a half-inhibitory concentration (IC50) of 0.077 µM.

In turn, `Cc1ccc2c(c1)[C@@H](c1ccccc1)C[C@@H](NC(=O)Nc1cccc(Cl)c1)C(=O)N2CC(=O)NC(C)(C)C` returned an IC50 of 0.317 µM.
